Patent US20030226169A1, “DNA sequences encoding antifungal proteins” (priority 1995, published 2003)
Positions of bridges follow the written chain, without caps; N, C: chain ends. Residues, ends and D or L forms follow the SMILES beside them.

Experiments:
[1] = tested on: Fusarium culmorum (IMI 180420); experiment: Antifungal growth inhibition microplate assay (photospectrometry); assay type: cell-based; settings: for increase of MIC value: 15-mer peptides, 50 mM KCl versus ½ PDB alone
How it was run: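 Spores (2×10^4/ml) in half-strength potato dextrose broth exposed to test solution, incubated in the dark at room temperature for about 72 h (96 h for V. dahliae). Growth by OD595 minus 30-min reading; IC50 is 50% and MIC 100% growth inhibition.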

[2] = tested on: F culmorum; experiment: Antifungal activity of combinations of Rs-AFP and 15-mer peptides; assay type: cell-based, Fusarium culmorum; settings: 100 x MIC of Rs-AFP2 / MIC of Rs-AFP2/peptide combination; 15-mer peptide added at 20 μg/ml; SMF medium; BSA-coated plates; Rs-AFP2 alone = 100
Experimental: The 15-mer peptides were tested for their ability to affect the antifungal activity of the Rs-AFP2 protein (SEQ ID NO: 35). Each peptide was added at a subinhibitory concentration (20 μg/ml ) to a twofold dilution series of Rs-AFP2 (SEQ ID NO: 35) ranging from 20 μg/ml down to 0.15 μg/ml. In the control series only water was added.
The target fungus was F culmorum and the growth medium was SMF. In order to exclude the effect of differential binding of the peptides to the microplate wells, the plates were coated with bovine serum albumin. […] The relative specific activity is defined as one hundred times the MIC of Rs-AFP2 divided by the MIC of the Rs-AFP2/peptide combination. Data are based on duplicate tests.

[3] = Solubility of peptide in water; assay type: physicochemical; settings: dissolved at 2 mg/ml
Experimental: Peptides insoluble in water were dissolved in 50% acetonitrile: 50% acetonitrile was added to the peptide to give a stock solution which could be further diluted with water for fungal growth assays. Fungal growth was not affected by the presence of acetonitrile at the maximum concentration tested ([…] in the test well).
Split 15-mer peptides were dissolved in sterile milli-Q water to a final concentration of 5 mg/ml. MPS 15-mer peptides were dissolved to a final concentration between 4 and 10 mg/ml using acetonitrile as solvent for those peptides insoluble in water. Split 6-, 9- and 12-mer Rs-AFP 1 peptides were dissolved to a final concentration of 2 mg/ml in 20% acetonitrile. Split 6-, 9- and 12-mer Rs-AFP2 peptides were dissolved to a final concentration of 2 mg/ml in sterile water except for peptides numbers 1 (SEQ ID NO: 133) and 83 (SEQ ID NO: 35, amino acids 37-45) which were dissolved in 50% acetonitrile and numbers 3, 4, 5, 25, 47, 52, 64, 69, 70, 73, 74, 77, 85 and 93 which were dissolved in 20% acetonitrile. Both Rs-AFP1 and Rs-AFP2 peptides were freeze-dried just before weighing. […] The foregoing peptides have the following sequence identifications: […]

Row | SMILES | increase of MIC value [1] | Relative Specific Antifungal Activity [2] | other results
1 | CC(=O)N[C@@H](CCC(=O)O)C(=O)N[C@@H](CCCCN)C(=O)N[C@@H](C)C(=O)N[C@@H](CCCNC(=N)N)C(=O)N[C@@H](Cc1c[nH]cn1)C(=O)NCC(=O)N[C@@H](CO)C(=O)N[C@@H](CS)C(=O)N[C@@H](CC(N)=O)C(=O)N[C@@H](Cc1ccc(O)cc1)C(=O)N[C@H](C(=O)N[C@@H](Cc1ccccc1)C(=O)N1CCC[C@H]1C(=O)N[C@@H](C)C(=O)N[C@@H](Cc1c[nH]cn1)C(N)=O)C(C)C [Peptide 8 (Rs-AFP2 15-mer)] | about 16 fold | 470 | 
2 | CC[C@H](C)[C@H](NC(=O)[C@H](CS)NC(C)=O)C(=O)N[C@@H](CCCNC(=N)N)C(=O)N[C@@H](CC(C)C)C(=O)N[C@@H](CCC(=O)O)C(=O)N[C@@H](CCCCN)C(=O)N[C@@H](C)C(=O)N[C@@H](CCCNC(=N)N)C(=O)N[C@@H](Cc1c[nH]cn1)C(=O)NCC(=O)N[C@@H](CO)C(=O)N[C@@H](CS)C(=O)N[C@@H](CC(N)=O)C(=O)N[C@@H](Cc1ccc(O)cc1)C(=O)N[C@H](C(N)=O)C(C)C [Peptide 7 (Rs-AFP2 15-mer), CIRLEKARHGSCNYV] (Ac-CIRLEKARHGSCNYV-NH2; N-terminus and C-terminus assumed) | twofold | 350 | 
3 | CC[C@H](C)[C@H](NC(=O)[C@H](CS)NC(=O)[C@H](CCC(N)=O)NC(=O)[C@H](CC(N)=O)NC(=O)[C@H](CCCCN)NC(=O)[C@H](CS)NC(=O)[C@H](C)NC(=O)[C@H](CC(N)=O)NC(=O)[C@H](CC(N)=O)NC(=O)[C@H](CC(N)=O)NC(=O)CNC(=O)[C@H](CS)NC(=O)[C@@H](NC(=O)CNC(C)=O)C(C)C)C(=O)N[C@@H](CCCNC(=N)N)C(N)=O [Peptide 4 (Rs-AFP2 15-mer)] (Ac-GVCGNNNACKNQCIR-NH2; N-terminus and C-terminus assumed) |  | 180 | 
4 | CC(=O)N[C@H]1CSSC[C@@H](C(N)=O)NC(=O)[C@H](CCCCN)NC(=O)[C@H](Cc2c[nH]cn2)NC(=O)[C@H](C)NC(=O)[C@@H]2CCCN2C(=O)[C@H](Cc2ccccc2)NC(=O)[C@H](C(C)C)NC(=O)[C@H](Cc2ccc(O)cc2)NC(=O)[C@H](CC(N)=O)NC1=O [Loop 1, CNYVFPAHKC] (Ac-CNYVFPAHKC-NH2; disulfide 1-10) |  |  | ANTIFUNGAL ACTIVITY, MIC ([1]; Table 8: Loop 1 and Rs-AFP2 15-mer peptides, 1/16 PDB): 2.5 mg/L; ANTIFUNGAL ACTIVITY, IC50 ([1]; Table 9: Loop 1 and Rs-AFP2 15-mer peptides, 1/16 PDB): 4 mg/L; solubility in water [3]: completely soluble in water
5 | CC[C@H](C)[C@H](NC(=O)[C@H](CS)NC(=O)[C@H](CCCCN)NC(=O)[C@H](Cc1c[nH]cn1)NC(=O)[C@H](C)NC(=O)[C@@H]1CCCN1C(=O)[C@H](Cc1ccccc1)NC(=O)[C@@H](NC(=O)[C@H](Cc1ccc(O)cc1)NC(=O)[C@H](CC(N)=O)NC(C)=O)C(C)C)C(=O)N[C@@H](CS)C(=O)N[C@@H](Cc1ccc(O)cc1)C(=O)N[C@@H](Cc1ccccc1)C(=O)N1CCC[C@H]1C(=O)N[C@@H](CS)C(N)=O [Peptide 10 (Rs-AFP2 15-mer)] (Ac-NYVFPAHKCICYFPC-NH2; N-terminus and C-terminus assumed) |  | 250 | 
6 | CC[C@H](C)[C@H](NC(=O)[C@H](CS)NC(=O)[C@H](CCC(N)=O)NC(=O)[C@H](CC(N)=O)NC(=O)[C@H](CCCCN)NC(=O)[C@H](CS)NC(C)=O)C(=O)N[C@@H](CCCNC(=N)N)C(=O)N[C@@H](CC(C)C)C(=O)N[C@@H](CCC(=O)O)C(=O)N[C@@H](CCCCN)C(=O)N[C@@H](C)C(=O)N[C@@H](CCCNC(=N)N)C(=O)N[C@@H](Cc1c[nH]cn1)C(=O)NCC(=O)N[C@@H](CO)C(N)=O [Peptide 6 (Rs-AFP2 15-mer), CKNQCIRLEKARHGS] (Ac-CKNQCIRLEKARHGS-NH2; N-terminus and C-terminus assumed) | twofold | 300 | 
7 | CC[C@H](C)[C@H](NC(=O)[C@H](CS)NC(=O)[C@H](CCCCN)NC(=O)[C@H](Cc1c[nH]cn1)NC(=O)[C@H](C)NC(=O)[C@@H]1CCCN1C(=O)[C@H](Cc1ccccc1)NC(=O)[C@@H](NC(=O)[C@H](Cc1ccc(O)cc1)NC(=O)[C@H](CC(N)=O)NC(=O)[C@H](CS)NC(=O)[C@H](CO)NC(=O)CNC(=O)[C@H](Cc1c[nH]cn1)NC(C)=O)C(C)C)C(=O)N[C@@H](CS)C(N)=O [Peptide 9 (Rs-AFP2 15-mer), HGSCNYVFPAHKCIC] (Ac-HGSCNYVFPAHKCIC-NH2; N-terminus and C-terminus assumed) | ~8 fold | 450 | 
8 | CC(=O)NCC(=O)N[C@H](C(=O)N[C@@H](Cc1c[nH]c2ccccc12)C(=O)N[C@@H](CO)C(=O)NCC(=O)N[C@H](C(=O)N[C@@H](CS)C(=O)NCC(=O)N[C@@H](CC(N)=O)C(=O)N[C@@H](CC(N)=O)C(=O)N[C@@H](CC(N)=O)C(=O)N[C@@H](C)C(=O)N[C@@H](CS)C(=O)N[C@@H](CCCCN)C(=O)N[C@@H](CC(N)=O)C(N)=O)C(C)C)[C@@H](C)O [Peptide 3 (Rs-AFP2 15-mer)] (Ac-GTWSGVCGNNNACKN-NH2; N-terminus and C-terminus assumed) |  | 180 | 
9 | CC(=O)N[C@@H](CCC(N)=O)C(=O)N[C@@H](CCCCN)C(=O)N[C@@H](CC(C)C)C(=O)N[C@@H](CS)C(=O)N[C@@H](CCC(N)=O)C(=O)N[C@@H](CCCNC(=N)N)C(=O)N1CCC[C@H]1C(=O)N[C@@H](CO)C(=O)NCC(=O)N[C@H](C(=O)N[C@@H](Cc1c[nH]c2ccccc12)C(=O)N[C@@H](CO)C(=O)NCC(=O)N[C@H](C(=O)N[C@@H](CS)C(N)=O)C(C)C)[C@@H](C)O [Peptide 1 (Rs-AFP2 15-mer)] (Ac-QKLCQRPSGTWSGVC-NH2; N-terminus and C-terminus assumed) |  | 310 | 
